Results as given in US20230090683A1, “ASPACYTARABINE PHARMACEUTICAL COMPOSITIONS AND USES THEREOF” (Biosight Ltd., priority 2020, published 2023).
≈ marks a conversion by molar mass, not a printed value. Like-named read-outs stand apart in the source and are kept apart here.

What was measured:
Assay type in all cases: physicochemical
[1] = Solubility and stability of aspacytarabine hydrochloride salt in 3% aqueous solutions of stabilizers/solubilizers after 24 hours (Table 2)
Experimental: In another study, aspacytarabine hydrochloride salt was added to 3% aqueous solution of different stabilizers/solubilizers (See Table 2) at pH˜5.

[2] = Solubility of aspacytarabine in different solubilizers/stabilizers (Table 1, FIG. 1); settings: thermodynamic from solid, read-out: Conc (solubility of aspacytarabine); for solubility at 24 h: after 24 hours, room temperature
Experimental: FIG. 1 depicts solubility (mg/ml) of aspacytarabine with (i) Tween 20, 1% (non-linear polymer); (ii) PEG 400 (neat); (iii) an aqueous solution including 1% w/w poloxamer; (iv) an aqueous solution including 2% w/w poloxamer; and (v) an aqueous solution including 1% w/w poloxamer and 5% w/w PVP, where “P188” is poloxamer 188 and “PVP” is polyvinylpyrrolidone. The solubility was measured after 24 hours in room temperature at pH 4.5.
Aspacytarabine or its hydrochloride salt was stirred with various ingredients in various conditions (separate experiment for each component/condition) in order to prepare compositions thereof. […] Among components tested were organic solvents (e.g. glycerol, ethanol, polyethylene glycol (PEG, e.g. PEG 400), dimethylacetamide and propylene glycol) and polymers (e.g. Polyoxyethylated 12-hydroxystearic acid, Polyethylene glycol, sorbitan monolaurate, polyvinylpyrrolidone (PVP), triblock copolymer of polyethylene/propylene oxide (poloxamer) and cyclodextrin and/or derivatives thereof). […] See comparative results in FIG. 1 and Table 1:
Compositions 1, 2a-2d, 3 as described in Example 2 were dissolved in an aqueous solution at room temperature. Composition 4 is aspacytarabine in neat PEG 400.

[3] = Solubility and stability of aspacytarabine free base and acid salt in aqueous media
From the text: Thus, there is an unmet need for a stable and highly concentrated solutions and/or high dosage composition comprising aspacytarabine.

[4] = hydrochloride salt in 3% aqueous PVP 10 kDa + PEG 300, pH~5, room temperature
[5] = hydrochloride salt in 3% aqueous Poloxamer 188 + PEG 300, pH~5, room temperature
[6] = hydrochloride salt in 3% aqueous Poloxamer 188, pH~5, room temperature
[7] = hydrochloride salt, control without stabilizers and/or solubilizer, pH~5, room temperature

Concentration after 24 h [1, 4]: 91600 ± 8400 µg/mL
Initial appearance [1, 4]: Clear
Initial concentration [1, 4]: 87.1 ± 0.0 mg/mL
Appearance after 24 h [1, 5]: Clear
Concentration after 24 h [1, 5]: 80600 ± 2200 µg/mL
Initial appearance [1, 5]: Clear
Initial concentration [1, 5]: 87.3 ± 0.4 mg/mL
Appearance after 24 h [1, 6]: Clear
Concentration after 24 h [1, 6]: 81800 ± 3200 µg/mL
Initial appearance [1, 6]: Clear
Initial concentration [1, 6]: 87.3 ± 0.2 mg/mL
Concentration after 24 h [1, 7]: 17200 ± 400 µg/mL
Initial appearance [1, 7]: Clear
Initial concentration [1, 7]: 86.6 ± 1.1 mg/mL
solubility at 24 h ([2]; 1% Tween 20, aqueous with cosolvent or surfactant or cyclodextrin, solubilizer/stabilizer Tween 20 (1%, non-linear polymer), pH 4.5): 14.3 mg/mL (≈ 40 mM)
solubility ([2]; Kolliphor ELP as solubilizer/stabilizer, aqueous with cosolvent or surfactant or cyclodextrin, solubilizer/stabilizer Kolliphor ELP): 17.8 mg/mL (≈ 49.7 mM)
solubility ([2]; Solutol HS15 as solubilizer/stabilizer, aqueous with cosolvent or surfactant or cyclodextrin, solubilizer/stabilizer Solutol HS15): 16.1 mg/mL (≈ 45.1 mM)
solubility at 24 h ([2]; aqueous solution with 1% w/w poloxamer 188, aqueous with cosolvent or surfactant or cyclodextrin, solubilizer/stabilizer Poloxamer 1% w/w aqueous solution, pH 4.5): 95.3 mg/mL (≈ 266 mM)
solubility at 24 h ([2]; aqueous solution with 1% w/w poloxamer 188 and 5% w/w PVP, aqueous with cosolvent or surfactant or cyclodextrin, solubilizer/stabilizer Poloxamer 1% + 5% PVP aqueous solution, pH 4.5): 90.9 mg/mL
solubility at 24 h ([2]; aqueous solution with 2% w/w poloxamer 188, aqueous with cosolvent or surfactant or cyclodextrin, solubilizer/stabilizer Poloxamer 2% w/w aqueous solution, pH 4.5): 94.9 mg/mL (≈ 265 mM)
solubility at 24 h ([2]; neat PEG 400, pH 4.5, organic solvent or mixture, solubilizer/stabilizer PEG400 (neat)): 50.5 mg/mL (≈ 141 mM)
solubility in aqueous media [3]: low solubility
Structure (SMILES): N[C@@H](CC(=O)Nc1ccn([C@@H]2O[C@H](CO)[C@@H](O)[C@@H]2O)c(=O)n1)C(=O)O [aspacytarabine, (S)-2-amino-4-((1-((2R,3S,4S,5R)-3,4-dihydroxy-5-(hydroxymethyl)tetrahydrofuran-2-yl)-2-oxo-1,2-dihydropyrimidin-4-yl)amino)-4-oxobutanoic acid]
